“And” between values parts separate entries of the source, which are not always exact repeats. Equal values may be shown once. Read-outs that look alike come from different tables or passages of the source.
Key:
NIH/3T3 cells = assay: 14.1T T1-weighted MR imaging and T1 analysis of labeled cell pellets; assay type: cell-based; settings: 24 hours, about 10^6 cells
Method: (§1) 14.1T MR imaging and T1 measurements were performed on a General Electric/Bruker Omega 600WB 14.1T imaging spectrometer fitted with accustar shielded gradient coils at 25° C. For solution phantoms, 50 […], of 60, 40 and 20 μM Gd(III) (DOTA-Gd(III) and Gd(III)-AuNP) in complete cell media were added to flame-sealed 5¾″ Pasteur pipettes and centrifuged at 4.0° C. and 100×g for 5.0 minutes. Capillaries were then placed in a custom-made glass capillary holder and imaged in a 20 mm birdcage coil. For cell phantoms, approximately 1.5×10^6 NIH/3T3 cells were incubated with 20 or 5.0 μM ([Gd(III)]) Gd(III)-AuNP or DOTA-Gd(III) for 24 hours, rinsed two times with DPBS, and harvested with trypsin. After addition of complete media (1.0 mL total volume) cells were added to flame-sealed 5¾″ Pasteur pipettes and centrifuged at 4.0° C. and 100×g for 5.0 minutes. Capillaries were then placed in a custom-made glass capillary holder and imaged in a 10 mm birdcage coil. Spin lattice relaxation times (T1) were measured using a saturation recovery pulse sequence with static TE (10.18 ms) and variable TR (350, 500, 750, 1000, 1500, 2500, 4000, 7500, 15000 ms) values. […]

[1] = data taken from Merbach et al., 37° C., cited from earlier work
NIH/3T3 and HeLa cells = assay: Cell counting and percent cell viability (Guava ViaCount flow cytometry); assay type: cell-based; settings: any of the conditions tested
Method: Cell Counting and Percent Cell Viability Determination Using a Guava EasyCyte Mini Personal Cell Analyzer (PCA) Flow Cytometry System. Cells were counted and percent cell viability determined via a Guava EasyCyte mini personal cell analyzer (Guava Technologies, Hayward, Calif., USA). Specifically, after cell harvesting an aliquot (10 or 20 μL) of the cell suspensions were mixed with Guava ViaCount reagent (final sample volume of 200 μL) and allowed to stain at room temperature for at least 5 minutes (no longer than 20 minutes). Stained samples were then vortexed for 5 seconds, after which cells were counted and percent cell viability determined via manual analysis using the ViaCount software module. For each sample, 1000 events were acquired with dilution factors that were determined based upon optimum machine performance (approximately 50-200 cells/μL).
To determine the efficacy of cellular uptake, NIH/3T3 and HeLa cells were labeled with increasing concentrations of DNA-Gd(III)-AuNPs or DOTA-Gd(III) for different amounts of time. Following agent incubation, cells were rinsed with DPBS, counted and then percent viability was assessed via flow cytometry. Gd(III) and Au content were determined via ICP-MS of acid digested samples. […] At all concentrations the Gd(III) uptake was >50-fold higher for DNA-Gd(III)-AuNPs than DOTA-Gd(III). […]

[2] = T1-weighted MR imaging and T1 analysis of solution phantoms (3T and 14.1T); assay type: physicochemical
Method: as §1

## O=C([O-])CN1CCN(CC(=O)[O-])CCN(CC(=O)O)CCN(CC(=O)[O-])CC1.[Gd+3] [DOTA-Gd(III)]
NIH/3T3 cells; 5.0 μM Gd(III) incubation
  T1 reduction of labeled cell pellets: no significant difference from control cell pellets
NIH/3T3 cells; 20 μM Gd(III) incubation
  T1 reduction of labeled cell pellets: no significant difference from control cell pellets
[1]
  r1 60 MHz (1.41T): 3.2^c mM^−1s^−1
[1]; listed as unconjugated Gd(III) complex
  r1 60 MHz (1.41T): 3.2 mM⁻¹ s⁻¹
NIH/3T3 and HeLa cells
  cell toxicity or cell number variation: no evidence of cell toxicity or cell number variation
[2]; 14.1T, 25° C., 60 μM Gd(III), complete cell media
  reduction in T1, solution phantoms: 31%
[2]; per Gd(III) (ionic), image-based, cell media at 25° C.
  r1 600 MHz (14.1T): 2.1 mM⁻¹ s⁻¹ and 2.2 mM⁻¹ s⁻¹
